Data from PubChem BioAssay (NCI).
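Compound exposure: 48 hours, 5 concentrations, 96-well plates. GI50 marks 50% less growth. TGI marks complete inhibition of growth.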

What follows are molecules tested on MDA-MB-468 breast (assay: growth of human tumour cells (NCI), 48 h).

Row | Structure (SMILES) | GI50 [nM] | TGI [nM]
1 | O=P1(S)OC[C@H]2O[C@@H]3[C@H](F)[C@@H]2OP(O)(=S)OC[C@H]2O[C@H]([C@H](F)[C@@H]2O1)n1cnc2c(ncnc21)NC/C=C/CNc1ncnc2c1ncn23 (some centres undefined) | 11500 | > 100000
2 | c1ccc(-c2nc(N3CCOCC3)c3c4c(sc3n2)CCCCCC4)nc1 | 4120 | 19000
3 | Cc1nc(Nc2cccnc2)sc1C(=O)/C=C/c1ccc(Cl)cc1 | 2890 | 8480
4 | CS(=O)(=O)Nc1cc(-c2ccc3ncc(C#N)c(NCc4ccccc4O)c3c2)cnc1Cl | 173 | 1680
5 | O=C(Oc1ccc(CO[N+](=O)[O-])cc1)c1ccccc1 | 146 | 332
6 | C=C1CCC2(C#N)[C@H]3[C@H](CC[C@@H]2C)[C@@H](C)C[C@@H](CC(C)(C)NC(=O)CN2CCC2=O)[C@H]13 (some centres undefined) | 3220 | 22900
7 | Cc1c2cc(Cl)c3ccccc3c2c[n+]2ccccc12 | 165 | 570
8 | CSCCCNC(=O)c1ccc2c(c1)/C(=C/c1[nH]c(C)cc1C)C(=O)N2 | 481 | > 100000
9 | COc1cnc2c(c1)C(=O)c1c-2n(CCCNCCO)c(=O)c2ccncc12 | 283 | 1650
10 | COc1ccc(C(O)c2cc3c(N)c(C(=O)Nc4cccc(Cl)c4)sc3nc2C)cc1 (centres undefined) | 286 | 28400
11 | C#Cc1nc2ccccc2c(=O)[nH]1 | 199 | 486
12 | COc1ccc(-c2nc(-c3nc4ccc(F)cc4[nH]3)c3ccccn23)cc1 | 4120 | 57100
13 | C1=C2CCCC3=Cc4ccccc4OC23Oc2ccccc21 | 5420 | 69100
14 | Cc1cc(O)c(C2=NN(c3ccc(S(N)(=O)=O)cc3)C(c3ccc(Cl)cc3)C2)c(C)c1Cl (centres undefined) | 10700 | 24600
15 | OCc1ccc(-c2cscc2-c2ccc(CO)o2)o1 | 74 | 281
16 | O=C(Nc1ccc(-c2nc(-c3cccc(OCCN4CCOCC4)c3)c(-c3ccnc(Br)c3)[nH]2)cc1)c1ccccc1 | 1770 | 5700

Row | Structure (SMILES) | GI50 [nM] | TGI [nM]
17 | CCN(c1cc(-c2ccc(CN3CCOCC3)cc2)cc(C(=O)NCc2c(C)cc(C)[nH]c2=O)c1C)C1CCOCC1 | 13400 | 30400
18 | Cc1nc(Nc2ccccn2)sc1C(=O)/C=C/c1ccc(Cl)cc1 | 395 | 5700
19 | O=C(NCCc1ccccn1)OCc1nc2nc(Cl)nc(N3CCOCC3)c2[nH]1 | 1350 | 2880
20 | Cc1nc2c(n1C)C(=O)c1ccccc1C2=O | 25100 | > 100000
21 | O=c1cc(N/N=C/c2ccc(F)cc2)c2cc(Cl)ccc2[nH]1 | 13300 | 49100
22 | COc1cc2c(cc1OC)C(=O)/C(=C/c1cc(-c3ccc4c(c3)OCO4)n[nH]1)C2 | 1070 | 2410
23 | CCN=C1C=CC(=C(c2ccc(N(CC)CC)cc2)c2ccc(N(CC)CC)cc2)c2ccccc21 | 30.2 | 228
24 | COc1cc(NC(=O)CCSc2nc3ccc(C)cc3c(=O)n2Cc2ccccc2)cc(OC)c1OC | 5390 | > 100000
25 | COc1cc(C)c(C2NC(=O)c3ccccc3N2)cc1C (centres undefined) | 754 | > 100000
26 | COc1ccc2[nH]c(O)c(/C=c3/cc4c(c(-c5ccc(F)c(OC)c5)n3)=Nc3ccccc3-4)c2c1 | 1430 | 2940
27 | c1ccc2c(-c3nc(-c4c[nH]c5ccncc45)cs3)c[nH]c2c1 | 226 | 1510
28 | Cn1cc(C2=C(c3cn(C)c4ccc(Cl)cc34)C(=O)NC2=O)c2ccccc21 | 2860 | 22000
29 | NCCOCCOCCNc1nc(-c2ccc(Cl)cc2)nc(N2CCN(c3ccccn3)CC2)n1 | 1950 | 3990
30 | Cn1cc(-c2ccc3nnc(Sc4ccc5ncccc5c4)n3n2)cn1 | 16400 | > 91400
31 | O=C1CCC(N2C(=O)c3ccccc3C2=O)C(=O)N1 (centres undefined) | > 100000 | > 100000
32 | Cc1nc2ccc(NC(=O)CCNC(=O)CCCc3ccc(CC(C(=O)O)C(=O)O)cc3)cc2s1 | > 100000 | > 100000
